Data reported in patent publication US20260193245A1, “CD93 INHIBITORS” (UNIVERSITÄT BERN, priority 2022, published 2026).

What was measured:
[1] = target: T1, CD93 (Mus musculus, UniProt O89103); experiment: Mouse MLL-AF9 compound screening: colony forming capacity of BL6 or CD93-/- GMPs (leukemia stem cells) from AML mice; format: cell-based; settings: GMPs from AML mice cultured overnight with 10 uM and 1 uM compound; colonies counted after 7 days; FIG. 1 and FIG. 2
T1 construct: endogenous in cells; host or cells: FACS-purified GFP+ lin- Sca-1- c-kit(high) CD34+ Fcγ+ GMPs from MLL-AF9 AML mice (BL6; CD93-/- cells as control)
T1 sequence (O89103 23-644): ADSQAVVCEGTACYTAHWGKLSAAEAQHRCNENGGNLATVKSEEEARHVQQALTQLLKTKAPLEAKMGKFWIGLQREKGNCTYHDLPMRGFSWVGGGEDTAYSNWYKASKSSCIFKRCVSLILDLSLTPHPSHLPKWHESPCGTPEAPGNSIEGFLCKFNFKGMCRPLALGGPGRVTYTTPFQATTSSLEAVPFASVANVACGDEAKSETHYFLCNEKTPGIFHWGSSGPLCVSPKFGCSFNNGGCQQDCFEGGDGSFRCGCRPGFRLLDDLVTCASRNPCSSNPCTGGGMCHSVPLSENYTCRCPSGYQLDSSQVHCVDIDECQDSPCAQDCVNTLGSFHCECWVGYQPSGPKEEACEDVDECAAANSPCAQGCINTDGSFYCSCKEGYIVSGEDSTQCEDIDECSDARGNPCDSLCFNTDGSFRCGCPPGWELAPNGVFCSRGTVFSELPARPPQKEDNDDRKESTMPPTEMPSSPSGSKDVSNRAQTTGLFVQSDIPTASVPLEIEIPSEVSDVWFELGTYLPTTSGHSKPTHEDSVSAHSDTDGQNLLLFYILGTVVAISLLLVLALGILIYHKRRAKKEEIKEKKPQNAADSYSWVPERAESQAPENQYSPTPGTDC
Protocol: The colony formation (% of control) is shown on the Y-axis. […] Compounds showing inhibition of CD93, show no or a very low difference in colony formation of CD93−/− and at the same time a low percentage of colony formation of BL6.
For testing the small molecule compounds targeting CD93 on GMPs (leukemia stem cells) colony forming capacity, 10^3 FACS-purified GFP+lin-Sca-1-c-kithighCD34+Fcγ+ GMPs from BL6 or CD93−/− transduced AML mice were cultured overnight in 96-well U-bottom plates (NeoLab) in RPMI medium supplemented with 10% FCS, 1% L-glutamine, 1% penicillin/streptomycin, 100 ng/ml recombinant mouse (rm)-SCF (Miltenyi) and 20 ng/ml rm-TPO (ProSpec), in the presence or absence of 10 uM and 1 uM compound in technical triplicates. Compounds were dissolved in DMSO. The next day, cells were plated in semi-solid methylcellulose in the absence of any compound. Number of colonies was assessed by inverted light microscopy after 7 days.
In this assay, the semi-solid Media used was 1.27% Methylcellulose (1500cp, Sigma), supplemented with 15% FCS, 20% BIT (50 mg/ml BSA in IMDM, 1.44 U/ml rh-insulin [Actrapid; Novo Nordisk], and 250 ng/ml human holo transferrin [Prospec]), 100 μM 2-mercaptoethanol, 100 U/ml penicillin, 100 μg/ml streptomycin, 2 mM L-glutamine, and 50 ng/ml rm-SCF (Miltneyi), 10 ng/ml rm-IL-3 (Miltenyi), 10 ng/ml rm-IL-6 (Miltenyi), and 50 ng/ml rm-Flt3-ligand (ProSpec).

[2] = tested on: BL6 leukemia stem cells; settings: murine CML model, BL6 and CD93-/- mice; Riether et al. 2021; cited from earlier work
[3] = tested on: human CML leukemia stem cells; settings: Riether et al. 2021; cited from earlier work

## O=C(c1csc(-c2ccccc2)n1)N1CCCN(C2CC2)CC1 [Compound 21560]
[1]
  inhibition profile of CD93 (colony formation, % of control, BL6 vs CD93-/- GMPs): good inhibition profiles of CD93

## O=C(c1nc2ccccc2s1)N1CCCN(C2CC2)CC1 [Compound 22393]
[1]
  inhibition profile of CD93 (colony formation, % of control, BL6 vs CD93-/- GMPs): good inhibition profiles of CD93

## COc1ccccc1-c1nc(C(=O)N2CCCN(C3CC3)CC2)cs1 [Compound 22394]
[1]
  inhibition profile of CD93 (colony formation, % of control, BL6 vs CD93-/- GMPs): good inhibition profiles of CD93

## O=C(c1ccn(-c2ccccc2)n1)N1CCCN(C2CC2)CC1 [Compound 22742]
[1]
  inhibition profile of CD93 (colony formation, % of control, BL6 vs CD93-/- GMPs): good inhibition profiles of CD93

## CN(C)CCN(C)C(=O)c1csc(-c2ccccc2)n1 [Compound 22815]
[1]
  inhibition profile of CD93 (colony formation, % of control, BL6 vs CD93-/- GMPs): good inhibition profiles of CD93

## O=C(c1csc(-c2ccccc2)n1)N1CCN2CCC1C2 (centres unmarked) [Compound 22817]
[1]
  inhibition profile of CD93 (colony formation, % of control, BL6 vs CD93-/- GMPs): good inhibition profiles of CD93

## CCN(CC)CCNC(=O)c1cc(Cl)c(N)cc1OC [metoclopramide]
[2]
  colony formation of BL6 leukemia stem cells: reduced colony formation of BL6 leukemia stem cells
[3]
  leukemia stem cell numbers and function: diminished leukemia stem cell numbers and function
